Earlier results in patent publication US20100280071A1, “BENZIMIDAZOLES WHICH HAVE ACTIVITY AT M1 RECEPTOR AND THEIR USES IN MEDICINE” (priority 2006, published 2010).

Columns and labels:
[1] = test system: unilateral 6-OH-DA lesioned rats
c-fos expression = settings: prefrontal cortex, nucleus accumbens, striatum; rats
[2] = test system: A10 and A9 dopamine cells; settings: A10 versus A9 cells
[3] = in vivo

EPS liability (monkeys): without EPS liability
SMILES: CCCCCCOc1nsnc1C1=CCCN(C)C1 [xanomeline]
effect on amphetamine-induced motor unrest (monkeys): reverses | effect on amphetamine induced locomotion (rats): reverses | effect on dopamine agonist driven turning [1]: reverses | c-fos expression (c-fos expression): induces c-fos expression in prefrontal cortex and nucleus accumbens, but not in striatum | dopamine cell firing [2]: inhibit A10, but not A9 | psychotic symptoms such as suspiciousness, hallucinations and delusions (Alzheimer's patients; Alzheimer's patients): reduce psychotic symptoms | side effects (Alzheimer's patients; attributed to relatively non-selective nature of the compound): dose-limiting peripheral cholinergic side effects | conditioned avoidance [3]: inhibit | effect on apomorphine induced climbing (mice): reverses
